In ChEMBL document CHEMBL4417621, “Methods to identify tas2r modulators” (2013):
The source made the active and inactive calls. The rule behind the calls is not given here.

Experiments:
[1] = biological target: T1, Taste receptor type 2 member 10 (Homo sapiens) (UniProt Q9NYW0); assay: Activation of full-length human TAS2R10 expressed in HEK293T/Galpha16-gustducin 44 cells assessed as effect on calcium flux by measuring deltaF/F0 ratio at 25 mM by Fluo-4 dye based FLIPR assay; type: functional, cell-based
T1 sequence (whole entry): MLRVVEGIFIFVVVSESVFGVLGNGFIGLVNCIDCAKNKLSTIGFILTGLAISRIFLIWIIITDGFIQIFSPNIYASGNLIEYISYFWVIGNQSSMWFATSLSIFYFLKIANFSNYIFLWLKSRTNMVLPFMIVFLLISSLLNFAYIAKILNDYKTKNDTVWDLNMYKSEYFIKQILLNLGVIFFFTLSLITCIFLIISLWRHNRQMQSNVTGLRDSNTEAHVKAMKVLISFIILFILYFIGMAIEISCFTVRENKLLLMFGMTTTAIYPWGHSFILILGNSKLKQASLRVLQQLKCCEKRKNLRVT

[2] = biological target: T2, Taste receptor type 2 member 31 (Homo sapiens) (UniProt P59538); assay: Activation of full-length human TAS2R44 expressed in HEK293T/Galpha16-gustducin 44 cells assessed as effect on calcium flux by measuring deltaF/F0 ratio at 1.5625 mM by Fluo-4 dye based FLIPR assay (reference value: 0.017 +/ - 0.008); type: functional, cell-based
T2 sequence (whole entry): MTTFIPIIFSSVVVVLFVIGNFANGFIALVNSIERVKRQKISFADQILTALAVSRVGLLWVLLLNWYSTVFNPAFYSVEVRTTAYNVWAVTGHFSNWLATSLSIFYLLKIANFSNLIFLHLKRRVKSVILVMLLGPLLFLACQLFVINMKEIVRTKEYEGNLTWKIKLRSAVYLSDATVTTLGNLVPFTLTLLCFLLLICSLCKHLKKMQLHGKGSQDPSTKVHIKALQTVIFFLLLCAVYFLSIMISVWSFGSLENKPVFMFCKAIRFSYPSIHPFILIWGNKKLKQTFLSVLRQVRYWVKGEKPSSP

[3] = biological target: T1, Taste receptor type 2 member 10 (Homo sapiens); assay: Activation of full-length human TAS2R10 expressed in HEK293T/Galpha16-gustducin 44 cells assessed as effect on calcium flux by measuring deltaF/F0 ratio at 6.25 mM by Fluo-4 dye based FLIPR assay; type: functional, cell-based
[4] = biological target: T3, Taste receptor type 2 member 46 (Homo sapiens) (UniProt P59540); assay: Activation of full-length human TAS2R46 expressed in HEK293T/Galpha16-gustducin 44 cells assessed as effect on calcium flux by measuring deltaF/F0 ratio at 3.125 mM by Fluo-4 dye based FLIPR assay; type: functional, cell-based
T3 sequence (whole entry): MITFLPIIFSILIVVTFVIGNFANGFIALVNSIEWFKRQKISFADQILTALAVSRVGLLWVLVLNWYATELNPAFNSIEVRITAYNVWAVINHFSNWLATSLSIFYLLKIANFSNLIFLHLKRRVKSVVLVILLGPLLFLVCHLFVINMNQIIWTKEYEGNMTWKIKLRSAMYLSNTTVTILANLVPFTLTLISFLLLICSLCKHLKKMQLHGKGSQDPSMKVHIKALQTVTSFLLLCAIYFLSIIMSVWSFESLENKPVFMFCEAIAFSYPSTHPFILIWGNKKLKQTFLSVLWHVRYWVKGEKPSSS

[5] = biological target: T4, Taste receptor type 2 member 1 (Homo sapiens) (UniProt Q9NYW7); assay: Activation of full-length human TAS2R1 expressed in HEK293T/Galpha16-gustducin 44 cells assessed as effect on calcium flux by measuring deltaF/F0 ratio at 0.3906 mM by Fluo-4 dye based FLIPR assay; type: functional, cell-based
T4 sequence (whole entry): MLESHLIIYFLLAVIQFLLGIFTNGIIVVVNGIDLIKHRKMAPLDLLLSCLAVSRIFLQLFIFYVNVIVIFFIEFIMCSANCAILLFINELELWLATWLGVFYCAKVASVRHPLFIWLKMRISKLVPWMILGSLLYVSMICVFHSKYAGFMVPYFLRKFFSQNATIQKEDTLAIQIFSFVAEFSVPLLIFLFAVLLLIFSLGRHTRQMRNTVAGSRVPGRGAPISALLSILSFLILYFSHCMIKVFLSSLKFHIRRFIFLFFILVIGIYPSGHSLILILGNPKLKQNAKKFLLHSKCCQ

[6] = biological target: T4, Taste receptor type 2 member 1 (Homo sapiens); assay: Activation of full-length human TAS2R1 expressed in HEK293T/Galpha16-gustducin 44 cells assessed as effect on calcium flux by measuring deltaF/F0 ratio at 3.125 mM by Fluo-4 dye based FLIPR assay; type: functional, cell-based
[7] = biological target: T3, Taste receptor type 2 member 46 (Homo sapiens); assay: Activation of full-length human TAS2R46 expressed in HEK293T/Galpha16-gustducin 44 cells assessed as effect on calcium flux by measuring deltaF/F0 ratio at 12.5 mM by Fluo-4 dye based FLIPR assay; type: functional, cell-based
[8] = biological target: T4, Taste receptor type 2 member 1 (Homo sapiens); assay: Activation of full-length human TAS2R1 expressed in HEK293T/Galpha16-gustducin 44 cells assessed as effect on calcium flux by measuring deltaF/F0 ratio at 6.25 mM by Fluo-4 dye based FLIPR assay; type: functional, cell-based
Homo sapiens = organism: Homo sapiens; assay: Induction of bitter sensitivity in bitter sensitive human panelists tasting solution containing 3 mM compound in absence of 13 ppm (E)-4-(2,2,3-trimethylcyclopent-3-enyl)but-2-enoic acid; type: functional, organism-based

Ratio [1]: 0.087
Ratio [2]: 0.026
Ratio [3]: 0.053
Ratio [4]: 0.036
Ratio [5]: 0.052
Ratio [6]: 0.059
Ratio [7]: 0.075
Ratio [8]: 0.061
SMILES: OC[C@H]1O[C@H](O[C@]2(CCl)O[C@H](CCl)[C@@H](O)[C@@H]2O)[C@H](O)[C@@H](O)[C@H]1Cl [SUCRALOSE]
Activity (Homo sapiens): Active
